Results taken from patent EP3964497A1, “SUBSTITUTED VICINAL DIAMINE COMPOUNDS AND THEIR USE IN THE TREATMENT, AMELIORATION OR PREVENTION OF PAIN” (priority 2020, dated 2022).
Read-outs that look alike come from different tables or passages of the source.

Legend:
κOR = target: T1, κOR (Homo sapiens, UniProt P41145); assay: competitive radioligand binding with [3H]diprenorphine, membranes of transfected HEK 293T cells
T1 construct: expressed in transfected cells; host or cells: HEK 293T cells, transient transfection, membrane preparation
Method: (§1) To verify the subtype selectivity of the described compounds for µOR over δOP and κOR, respectively, the binding affinities of the described examples to the different human opioid receptors in an in-vitro test system were measured.
After preparation of membranes, radioligand displacement assays were run in 96-well format at a final volume of 200 µL in binding buffer (50 mM Tris-HCI, 1 mM EDTA, 5 mM MgCl2, 100 µg/mL bacitracin, 5 µg/mL soybean trypsin inhibitor, pH 7.4) with the radioligand [^3H]diprenorphine (specific activity = 31 Ci/mmol) at a final concentration of 0.20-0.30 nM. […] Unspecific binding was determined in the presence of 10 µM of the naloxone. […] The resulting competition curves of the receptor binding experiments were analyzed by nonlinear regression. […] Three to seven experiments per compound were performed, with each concentration in triplicate.

µOR [1] = target: T2, µOR (Homo sapiens, UniProt P35372); assay: as above; parameters: expressed in transfected cells; host or cells: HEK 293T cells, transient transfection, membrane preparation
Method: as §1
(§2) For the determination of receptor binding affinity competitive radioligand binding experiments were performed as described in literature (H. Huebner, C. Haubmann, W. Utz, P. Gmeiner, J. Med. Chem., 2000, 43, 756-762). In brief, HEK 293T cells were transiently transfected with the cDNAs coding for the human opioid receptor subtypes µOR, δOR, and kOR, respectively, using a solution of polyethylenimine in PBS (PEI, linear, 25 kDa, Polysciences) as transfection reagent at a 3:1 PEI to cDNA ratio (I. Fish, A. Stoessel, K. Eitel, C. Valant, S. Albold, H. Huebner, D. Moeller, M.J. Clark, R.K. Sunahara, A. Christopoulos, B.K. Shoichet, P. Gmeiner, J. Med. Chem., 2017, 60, 9239-9250). After preparation of membranes, radioligand displacement assays were run in 96-well format at a final volume of 200 µL in binding buffer (50 mM Tris-HCI, 1 mM EDTA, 5 mM MgCl2, 100 µg/mL bacitracin, 5 µg/mL soybean trypsin inhibitor, pH 7.4) with the radioligand [^3H]diprenorphine (specific activity = 31 Ci/mmol) at a final concentration of 0.20-0.30 nM. […] Unspecific binding was determined in the presence of 10 µM of the naloxone. Protein concentrations were determined employing the method of Lowry with bovine serum albumin as standard (O.H. Lowry, N.J. Rosebrough, A.L. Farr, R.J. Randall, J. Biol. Chem., 1951, 193, 265-275). The resulting competition curves of the receptor binding experiments were analyzed by nonlinear regression. The data were initially fit using a sigmoid model to provide IC50 values, which were subsequently transformed to Ki values according to the equation of Cheng and Prusoff (Y.-C. Cheng, W. H. Prusoff, Biochem. Pharmacol., 1973, 22, 3099-3108). Three to seven experiments per compound were performed, with each concentration in triplicate.

µOR [2] = target: T2, µOR; assay: β-arrestin-2 recruitment, enzyme-fragment complementation assay in HEK-293 cells; format: cell-based; parameters: expressed in transfected cells; host or cells: HEK-293 cells stably expressing EA-tagged β-arrestin-2, transiently transfected with µOR-PK1; conditions: for Emax: HEK293, relative to the full effect of reference agonist DAMGO [=100%]; for β-arrestin recruitment EC50: mean of 3-8 tests, 90 min incubation, CBA = could not be analyzed (no dose-response curve)
Method: (§3) Functionally selective drugs, which are biased towards Gi protein activation over β-arrestin signaling at the µOR are indicated to show an improved side effect profile. Thus, the characterization of the functional properties of the described examples at the µOR were performed by determination of the ligand stimulated G-protein related signaling and β-arrestin recruitment applying cell based in-vitro test systems. Full and partial agonists as well as antagonists for G protein related signaling were identified.
Measurement of β-arrestin-2 recruitment was done applying an enzyme-fragment complementation assay as described previously (C. Gentzsch, K. Seier, A. Drakopoulos, M.-L. Jobin, Y. Lanoiselee, Z. Koszegi, D. Maurel, R. Sounier, H. Huebner, P. Gmeiner, S. Granier, D. Calebiro, M. Decker. Ang. Chem. Int. Ed. 2020, 59, 2-9. J. Hellmann, M. Drabek, J. Yin, J. Gunera, T. Proell, F. Kraus, C.J. Langmead, H. Huebner, D. Weikert, P. Kolb, D.M. Rosenbaum, P. Gmeiner. PNAS 2020, 117, 18059-18067). In brief, HEK-293 cells stably expressing the enzyme acceptor (EA) tagged β-arrestin-2 fusion protein were transiently co-transfected with the ProLink tagged µOR-PK1 After 24 h cells were transferred into 384-well microplates and cultured for further 24 h. To start arrestin recruitment compounds were added to the cells to get a final concentration in a range of 10 pM to 100 µM. After incubation for 90 min reaction was stopped by addition of detection mix. Chemiluminescence was determined in duplicates (3-8 individual experiments for each compound in comparison to the reference agonist DAMGO). Data analysis was done as described above.
(§4) In the above table, the numbers indicate mean EC50 values in nM and Emax values relative to the full effect of reference agonist DAMGO [=100%], respectively and are derived from 3-9 individual experiments for G-protein signaling and 3-8 tests for arrestin recruitment. ND = not determined.

µOR [3] = target: T2, µOR; assay: G-protein mediated signaling, IP1 accumulation assay (HTRF) in HEK-293T cells with hybrid G-protein Gαqi; format: cell-based; parameters: expressed in transfected cells; host or cells: HEK-293T cells, transient transfection; conditions: for Emax: HEK-293T, read-out: G-protein signaling Emax
Method: as §3
The determination of G-protein stimulated µOR activation was measured applying an IP1 accumulation assay as described previously (J. Kruell, S.K. Fehler, L. Hofmann, N. Nebel, S. Maschauer, O. Prante, P. Gmeiner, H. Lanig, H. Huebner, M.R. Heinrich. ChemMedChem 2020, 15, 1175-1186. C. Gentzsch, K. Seier, A. Drakopoulos, M.-L. Jobin, Y. Lanoiselee, Z. Koszegi, D. Maurel, R. Sounier, H. Huebner, P. Gmeiner, S. Granier, D. Calebiro, M. Decker. Ang. Chem. Int. Ed. 2020, 59, 2-9). In brief, HEK-293T cells were grown to confluence of approximately 70% and transiently transfected with the cDNA of the human µOR receptor and the hybrid G-protein Gαqi. After one day cells were seeded into 384-well microplates. For testing cells were incubated with test compounds (final range of concentration from 1 pM up to 10 µM) for 180 min at 37 °C followed by addition of detection reagents. Time resolved fluorescence resonance energy transfer (HTRF) was determined using a microplate reader. Each compound was tested in duplicates in 3-9 individual experiments in comparison to the reference compound DAMGO. The resulting dose response curves were analyzed by nonlinear regression using the algorithms in PRISM 6.0 (GraphPad software, San Diego, CA), fitted with a sigmoid model and normalized to basal activity (0 %) and the maximal effect caused by the reference full agonist DAMGO (100 %).
as §4

δOR = target: T3, δOR (Homo sapiens, UniProt P41143); assay: competitive radioligand binding with [3H]diprenorphine, membranes of transfected HEK 293T cells
T3 construct: expressed in transfected cells; host or cells: HEK 293T cells, transient transfection, membrane preparation
Method: as §1, §2

[4] = radioligand [3H]diprenorphine, number in brackets = number of experiments, read-out: mean Ki value κOR
[5] = radioligand [3H]diprenorphine, number in brackets = number of experiments, read-out: mean Ki value δOR

| Structure (SMILES) | Ki (κOR; [4]) | Ki (µOR [1]) | Emax (µOR [2]) | β-arrestin recruitment EC50 (µOR [2]) | EC50 (µOR [3]) | Emax (µOR [3]) | Ki (δOR; [5]) | Ki (κOR) | Ki (δOR) | Ki (µOR [1]; radioligand [3H]diprenorphine, number in brackets = number of experiments, read-out: mean Ki value µOR) | G-protein signaling EC50 (µOR [3]; mean of 3-9 experiments, 180 min at 37 °C, CBA = could not be analyzed (no dose-response curve)) | EC50 (µOR [3]; mean of 3-9 experiments, 180 min at 37 °C, CBA = could not be analyzed (no dose-response curve), read-out: G-protein signaling EC50) | EC50 (µOR [2]) |
| --- | --- | --- | --- | --- | --- | --- | --- | --- | --- | --- | --- | --- | --- |
| CN(C)[C@H](CNC(=O)/C=C/c1ccccc1C(F)(F)F)Cc1ccc(O)cc1 [Example 7, (S,E)-N-(2-(Dimethylamino)-3-(4-hydroxyphenyl)propyl)-3-(2-(trifluoromethyl)phenyl)acrylamide] | 140 nM | 28 nM | < 5% | CBA | 13 nM | 44% | 180 nM |  |  |  |  |  |  |
| CN(C)[C@H](CNC(=O)/C=C/c1cccc(C(F)(F)F)c1)Cc1ccc(O)cc1 [Example 8, (S,E)-N-(2-(Dimethylamino)-3-(4-hydroxyphenyl)propyl)-3-(3-(trifluoromethyl)phenyl)acrylamide formiate] |  | 30 nM | < 5% | CBA | 15 nM | 100% |  | 580 nM | 120 nM |  |  |  |  |
| CN(C)[C@H](CNC(=O)/C=C/c1ccc(C(F)(F)F)cc1)Cc1ccc(O)cc1 [Example 9, (S,E)-N-(2-(Dimethylamino)-3-(4-hydroxyphenyl)propyl)-3-(4-(trifluoromethyl)phenyl)acrylamide] | 2800 nM |  | < 5% | CBA | 67 nM | 92% | 1100 nM |  |  | 170 nM |  |  |  |
| Cc1cc(O)cc(C)c1C[C@H](N)CNC(=O)/C=C/c1ccccc1 [Example 10, (S)-N-(2-Amino-3-(4-hydroxy-2,6-dimethylphenyl)propyl)cinnamamide formiate] |  | 58 nM | < 5% | CBA |  | < 5% |  | 440 nM | 510 nM |  | CBA |  |  |
| NC(=O)c1ccc(C[C@H](N)CNC(=O)/C=C/c2cccc(C(F)(F)F)c2)cc1 [Example 14, (S,E)-4-(2-Amino-3-(3-(3-(trifluoromethyl)phenyl)acrylamido)propyl)benzamide formiate] |  | 460 nM | < 5% | CBA |  | 75% |  | 5600 nM | 2900 nM |  |  | 2200 nM |  |
| CN(C)[C@H](CNC(=O)/C=C/c1cccc(C(F)(F)F)c1)Cc1ccc(C(N)=O)cc1 [Example 15, (S,E)-4-(2-(Dimethylamino)-3-(3-(3-(trifluoromethyl)phenyl)acrylamido)propyl)benzamide formiate] |  | 6.7 nM | 5% |  | 6.3 nM | 95% |  | 450 nM | 55 nM |  |  |  | 130 nM |
| CN(C)[C@H](CNC(=O)/C=C/c1cccc2ccccc12)Cc1ccc(C(N)=O)cc1 [Example 18, (S,E)-4-(2-(Dimethylamino)-3-(3-(naphthalen-1-yl)acrylamido)propyl)benzamide formiate] |  | 6.2 nM | 4% |  | 9.8 nM | 92% |  | 200 nM | 130 nM |  |  |  | 120 nM |
| CN(C)[C@H](CNC(=O)/C=C/c1ccsc1)Cc1ccc(O)cc1 [Example 19, (S,E)-N-(2-(Dimethylamino)-3-(4-hydroxyphenyl)propyl)-3-(thiophen-3-yl)acrylamide] | 130 nM | 8.5 nM | < 5% | CBA | 7.5 nM | 53% |  |  | 59 nM |  |  |  |  |
